# Data published in publication PMC11211886 (Frontiers in Pharmacology, 2024).
# Where two headings read alike, the source gives them in different places.
# What was measured:
# [1] = Single-dose PK and food effect in beagle dogs (IV/PO); design: species or system beagle dog; details: in vivo; for AUC(0-inf): AUC0-inf
# Experimental: Twelve beagle dogs (6-10 kg, male: female = 1:1) purchased from Beijing Marshall Biotechnology Co. Ltd. (Beijing, China) were enrolled in a three-period self-control cross-over study with a washout time of 1 week. […] In Period 1 and Period 2, dogs were fasted overnight until dosing. […] Approximately 1.0 mL of blood was collected per time point from the jugular vein using a 2 mL injector and transferred to a 3 mL tube that contained sodium heparin. The collected blood samples were centrifuged at 3,500 g for 5 min at 4°C to collect plasma within 30 min after sample collection. […] Animals were fasted overnight and for approximately 4 h post-dose. […] At each time point, approximately 1.0 mL of blood was collected from the femoral vein and transferred into an individual tube that contained sodium heparin. The blood samples were centrifuged at 3,500 g for 5 min at 4°C to harvest plasma.
# [2] = target: T1, OAT1 (Homo sapiens, UniProt Q4U2R8); experiment: in vitro
# T1 sequence (Q4U2R8 1-563): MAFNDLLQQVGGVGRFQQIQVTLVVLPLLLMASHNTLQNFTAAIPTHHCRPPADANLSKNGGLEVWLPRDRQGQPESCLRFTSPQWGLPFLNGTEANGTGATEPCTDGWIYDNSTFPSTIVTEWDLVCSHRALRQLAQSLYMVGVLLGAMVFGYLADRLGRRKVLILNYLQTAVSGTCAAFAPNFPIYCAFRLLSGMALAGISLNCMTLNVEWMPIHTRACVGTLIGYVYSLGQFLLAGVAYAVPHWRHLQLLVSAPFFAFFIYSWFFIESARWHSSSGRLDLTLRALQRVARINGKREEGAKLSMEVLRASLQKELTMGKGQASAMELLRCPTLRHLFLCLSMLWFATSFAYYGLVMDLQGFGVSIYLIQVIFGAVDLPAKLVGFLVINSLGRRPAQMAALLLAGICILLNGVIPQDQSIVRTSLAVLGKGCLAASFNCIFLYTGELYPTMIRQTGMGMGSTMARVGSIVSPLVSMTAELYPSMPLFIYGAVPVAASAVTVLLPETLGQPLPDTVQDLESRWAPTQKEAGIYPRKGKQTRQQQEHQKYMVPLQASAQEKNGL
# Experimental: The pre-incubation solutions were removed, and incubation solutions containing the inhibitors and probe substrates (or transport buffer containing an equal volume of vehicle control and probe substrates) were added and incubated at 37°C for 2 min (5 min for OATP1B3). The probe substrate for OAT1 was 4-aminohippuric acid (10 μM), for OAT3 was estrone 3-sulfate (10 μM), for OCT2 was metformin (100 μM), for OATP1B1 was β-estradiol 17-(β-D-glucuronide) (5 μM), for OATP1B3 was β-estradiol 17-(β-D-glucuronide) (10 μM), and for MATE1 and MATE2-K was tetraethylammonium (10 μM). After incubation, cells were washed three times with ice-cold transport buffer (25 mM HEPES, pH 7.4, pH 8.0 for overexpressing MATE1 and MATE2-K HEK293 cells) and lysed in distilled water. The concentrations of probe substrates were determined by LC-MS/MS, and a BCA Kit (Solarbio ®Life Sciences, Beijing, China) was used to determine the protein content in the cell lysate.
# where C is the concentration of the drug in the cell lysate (nM), P is the protein concentration of the cell lysate (mg/mL), and T is the incubation time (minute). Uptake ratetest compound is the uptake rate of the substrate in the presence of the test compound. Uptake ratevehicle control is the uptake rate of the substrate in the presence of the vehicle control. Uptake ratepassive is the uptake rate of the substrate in the presence of the positive inhibitor at the top test concentration.
# [3] = both sexes, beagle, dog, iv, 0.5 mg/kg
# [4] = both sexes, beagle, dog, po, 0.5 mg/kg
# [5] = both sexes, beagle, dog, po, 3.5 mg/kg
# [6] = both sexes, beagle, dog, po, 25 mg/kg
smiles,measurement,setting,value
C[C@H](Nc1ncnc(N)c1C#N)c1cc2ncc(Cl)n2nc1-c1ccccc1 [Amdizalisib],AUC(0-t),[1]; [3],750 ± 272 ng·h/mL
same,Vd,[1]; [3],2.4 ± 0.354 L/kg
same,AUC(0-inf),[1]; [3],772 ± 272 ng·h/mL
same,MRT,"[1]; both sexes, beagle, dog, iv, 0.5 mg/kg, Beagle dog, fasted, IV 0.5 mg/kg, read-out: MRT",3.65 ± 1.29 h
same,half-life,"[1]; both sexes, beagle, dog, iv, 0.5 mg/kg, Beagle dog, fasted, IV 0.5 mg/kg, read-out: t1/2 (converted)",3.02 ± 1.27 h
same,MRT,[1]; [4],9.66 ± 6.73 h
same,Tmax,[1]; [4],1.92 ± 0.665 h
same,half-life,[1]; [4],7.22 ± 6.55 h
same,AUC(0-inf),[1]; [4],359 ± 259 ng·h/mL
same,Cmax,"[1]; both sexes, beagle, dog, po, 0.5 mg/kg, Cmax",42.4 ± 21.8 ng/mL
same,AUC(0-t),[1]; [5],5540 ng·h/mL
same,MRT,[1]; [5],13.8 ± 4.85 h
same,Tmax,[1]; [5],6.25 ± 9.11 h
same,AUC(0-inf),[1]; [5],5660 ng·h/mL
same,half-life,"[1]; both sexes, beagle, dog, po, 3.5 mg/kg, Beagle dog, fasted, PO 3.5 mg/kg, read-out: t1/2 (converted)",6.08 ± 1.48 h
same,AUC(0-t),[1]; [6],66500 ng·h/mL
same,AUC(0-inf),[1]; [6],72800 ng·h/mL
same,MRT,"[1]; both sexes, beagle, dog, po, 25 mg/kg, Beagle dog, fasted, PO 25 mg/kg, read-out: MRT",31.8 ± 10.2 h
same,Tmax,"[1]; both sexes, beagle, dog, po, 25 mg/kg, Beagle dog, fasted, PO 25 mg/kg, read-out: Tmax",15 ± 10.4 h
same,half-life,"[1]; both sexes, beagle, dog, po, 25 mg/kg, Beagle dog, fasted, PO 25 mg/kg, read-out: t1/2 (converted)",13.9 ± 5.07 h
same,Tmax,"[1]; both sexes, beagle, dog, po, 25 mg/kg, Beagle dog, fed, PO 25 mg/kg, read-out: Tmax",7 ± 8.34 h
same,half-life,"[1]; both sexes, beagle, dog, po, 25 mg/kg, Beagle dog, fed, PO 25 mg/kg, read-out: t1/2 (converted)",17.4 ± 2.49 h
same,clearance,"[1]; both sexes, Beagle dog, fasted, IV 0.5 mg/kg",11.8 ± 3.61 mL/min/kg
same,Cmax,"[1]; both sexes, Beagle dog, fasted, PO 3.5 mg/kg, read-out: Cmax",347 ± 105 ng/mL
same,CL as % of the hepatic blood flow,"[1]; both, beagle, dog, iv",38.1%
same,Cmax,"[1]; both, beagle, dog, po, 25 mg/kg","2,159 ± 1,070 ng/mL"
same,IC50,[2],4.14 µM
same,Percentage transported,"[2]; OAT1, compound 0.3 μM",96.4%
same,Uptake rate,"[2]; OAT1, compound 0.3 μM",489±79.6 pmol/mg protein/min
same,Percentage transported,"[2]; OAT1, compound 1 μM",91.6%
same,Uptake rate,"[2]; OAT1, compound 1 μM",467±34.8 pmol/mg protein/min
same,Percentage transported,"[2]; OAT1, compound 3 μM",50.9%
same,Uptake rate,"[2]; OAT1, compound 3 μM",278±37.1 pmol/mg protein/min
same,Percentage transported,"[2]; OAT1, compound 10 μM",33.3%
same,Uptake rate,"[2]; OAT1, compound 10 μM",196±6.18 pmol/mg protein/min
same,Percentage transported,"[2]; OAT1, compound 30 μM",7.47%
same,Uptake rate,"[2]; OAT1, compound 30 μM",76.5±17.7 pmol/mg protein/min
same,Percentage transported,"[2]; OAT1, compound 100 μM",-7.21%
same,Uptake rate,"[2]; OAT1, compound 100 μM",8.38±1.24 pmol/mg protein/min
same,"inhibition at 2 min, 0.3 µM","[2]; human, pH 7.4",3.65%
same,"inhibition at 2 min, 1 µM","[2]; human, pH 7.4",8.44%
same,"inhibition at 2 min, 3 µM","[2]; human, pH 7.4",49.1%
same,"inhibition at 2 min, 10 µM","[2]; human, pH 7.4",66.7%
same,"inhibition at 2 min, 30 µM","[2]; human, pH 7.4",92.5%
same,"inhibition at 2 min, 100 µM","[2]; human, pH 7.4",107%
same,calculated R value (OAT1),[2]; renal OATs,< 1.1
